Data as given in patent publication US10512631B2, “Chalcone compounds” (Beth Israel Deaconess Medical Center, Inc., priority 2015, dated 2019).

How the values were obtained:
Type in all cases: cell-based
[1] = tested on: A549; test: Cytoxicity / crystal violet staining, A549; conditions: average of triplicates, % of apoptotic cells vs DMSO controls, N.A. = not active at 10 μM
Method: (§1) PC3 (provided by Dr. Steven Balk's laboratory in Department of Medicine at Beth Israel Deaconess Medical Center), PANC02 and CRL2119 (provided by Dr. Pankaja Seth's laboratory in Department of Medicine at Beth Israel Deaconess Medical Center), A549 (ATCC) cell lines were cultured according to manufacturer's protocols. Briefly, PC3 were cultured in RPMI medium supplemented with 10% FBS (Atlanta). PANC-2, A549 and CRL2119 were cultured in DMEM High medium supplemented with 10% FBS (Atlanta). Human bronchial epithelial cells (BEC) were cultured in Airway Epithelial Cell Basal Medium with the Bronchial Epithelial cell growth kit (ATCC) according to manufacturer's protocol and used at passages 3-5.
(§2) Cells were seeded at 5×10^3 concentration in 96 well plates and treated with test compounds or DMSO (0.001-10 μM) for 72 hours. Culture medium was removed and cells were stained with crystal violet solution (Sigma-Aldrich) for 15 minutes while shaking at room temperature. Crystal violet was then removed and cells were repeatedly washed in water. Attached cells stained with crystal violet were dried and then resuspended in 10% acetic acid. Absorbance was measured at 562 nm. The intensity of staining corresponded directly to the number of live cells.

[2] = tested on: PC3; test: Cytoxicity / crystal violet staining, PC3; conditions: average of triplicates, % of apoptotic cells vs DMSO controls, N.A. = not active at 10 μM
Method: as §1, §2

[3] = tested on: A549 cells; test: Invasion chambers (Transwell, Matrigel); conditions: serum chemoattractants, compared to untreated cells
Method: The invasion of A549 cells was measured using Transwell chambers (Chemicon, Millipore, Calif.) according to the manufacturer's protocol. Briefly, A549 cells were treated with test compounds at 1 μM in 500 μl of DMEM medium without FBS for 24 hours. Medium in the upper chamber was serum-free while medium in the lower chamber contained 10% FBS as a source of chemoattractants. Cells that passed through the Matrigel-coated membrane were stained and photographed after 24 hours of incubation. Absorbance was measured at 562 nm by ELISA reader after dissolving of stained cells in 10% acetic acid.

[4] = tested on: A549; test: Cytoxicity / crystal violet staining, A549; conditions: Homo sapiens, 0.01-5 μM for 72 hours, n=4
[5] = tested on: PC3; test: Cytoxicity / crystal violet staining, PC3; conditions: Homo sapiens, PC-3; 0.01-5 μM for 72 hours, n=4
[6] = tested on: PC3 cells; test: Immunostaining of α-tubulin and β-actin in PC3 cells; conditions: Compound 6 1 μM or docetaxel 20 nM, 24 hours
Method: Immunofluorescence and immunostaining on cell lines and tumor samples were performed as described in Wegiel et al, Cancer research 2013, 73(23), 7009-21. Anti-mouse STMN1, anti-P (Ser10)-Histone H3, and α-tubulin antibody were obtained from Cell Signaling. β-actin antibody was obtained from Sigma-Aldrich. […] After immunofluorescence staining, the number of P-Histone H3 was quantified per field of view at 40× magnification using Zeiss Axiovert Microscope.

SMILES | Cytoxicity (% cell killing at 10 μM) A549 [1] [%] | Cytoxicity (% cell killing at 10 μM) PC3 [2] [%] | invasion / migration through matrigel coated chambers [3] | IC50 [4] [nM] | IC50 [5] [nM] | microtubule stability (α-tubulin immunostaining) [6]
O=C1/C(=C/c2ccc3[nH]ccc3c2)CCc2ccccc21 [Compound 1] | 47 | 55 |  |  |  | 
Cn1ccc2cc(/C=C3\CCc4ccccc4C3=O)ccc21 [Compound 2] | 56 | 52 |  |  |  | 
CCn1ccc2cc(/C=C3\CCc4ccccc4C3=O)ccc21 [Compound 3] | 52 | 58 |  |  |  | 
Cn1ccc2ccc(/C=C3\CCc4ccccc4C3=O)cc21 [Compound 4] | 53 | 61 |  |  |  | 
O=C1/C(=C/c2ccc3[nH]ccc3c2)CCc2ccc(F)cc21 [Compound 7, (2E)-7-fluoro-2-(1H-indol-5-ylmethylidene)-1,2,3,4-tetrahydronaphthalen-1-one] | 43 | 45 | accelerated migration | 271 | 449 | 
CCn1ccc2cc(/C=C3\CCc4ccc(F)cc4C3=O)ccc21 [Compound 8, (2E)-2-[(1-ethyl-1H-indol-5-yl)methylidene]-7-fluoro-1,2,3,4-tetrahydronaphthalen-1-one] | 38 | 33 | strongly inhibited invasion | 113 | 106 | 
CC(=O)n1ccc2cc(/C=C3\CCc4ccc(F)cc4C3=O)ccc21 [Compound 9] | 28 | 24 |  |  |  | 
CCn1ccc2cc(/C=C3\CCc4ccc(OC)cc4C3=O)ccc21 [Compound 12] | 20 | 49 |  |  |  | 
COc1ccc2c(c1)C(=O)/C(=C/c1ccc3[nH]ccc3c1)CC2 [Compound 13] | 5 | 55 |  |  |  | 
COc1ccc2c(c1)C(=O)/C(=C/c1ccc3c(ccn3C)c1)CC2 [Compound 14] | 21 | 18 |  |  |  | 
COc1ccc2c(c1)C(=O)/C(=C/c1ccc3ccn(C)c3c1)CC2 [Compound 15] | 24 | 42 |  |  |  | 
COc1cc2c(cc1OC)C(=O)/C(=C/c1ccc3c(ccn3C)c1)CC2 [Compound 16] |  | 31 |  |  |  | 
CCn1ccc2cc(/C=C3\CCc4cc(OC)c(OC)cc4C3=O)ccc21 [Compound 17] | 19 | 45 |  |  |  | 
COc1cc2c(cc1OC)C(=O)/C(=C/c1ccc3ccn(C)c3c1)CC2 [Compound 18] | 41 | 55 |  |  |  | 
O=C1/C(=C/c2ccc3[nH]ccc3c2)CCc2ccc(Br)cc21 [Compound 19] | 16 | 42 |  |  |  | 
Cn1ccc2cc(/C=C3\CCc4ccc(Br)cc4C3=O)ccc21 [Compound 20] | 21 | 47 |  |  |  | 
Cn1ccc2ccc(/C=C3\CCc4ccc(Br)cc4C3=O)cc21 [Compound 21] | 26 | 39 |  |  |  | 
CC(=O)O[C@@]12CO[C@@H]1C[C@H](O)[C@@]1(C)C(=O)[C@H](O)C3=C(C)[C@@H](OC(=O)[C@H](O)[C@@H](NC(=O)OC(C)(C)C)c4ccccc4)C[C@@](O)([C@@H](OC(=O)c4ccccc4)[C@H]21)C3(C)C [docetaxel, reference compound] |  |  |  |  |  | stabilization of microtubules
